Results on four molecules are retold here after PubChem BioAssay (NCI).

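Five concentrations, 48 hours, 96-well plates. GI50 = concentration required for 50% inhibition of growth. TGI: total growth inhibition.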

Some test systems named below: HOP-62 NSCLC; CCRF-CEM leukemia; RXF 393 renal; SR leukemia; OVCAR-8 ovarian; CAKI-1 renal; A498 renal; COLO 205 colon; RPMI-8226 leukemia; DU-145 prostate.
Test in all cases: NCI-60 cell line screen, 48 h

In the case of `CCOCCc1c(O)nc(SC)[nH]c1=O`, the GI50 in the experiment on HOP-62 NSCLC, with CCRF-CEM leukemia, in the experiment on RXF 393 renal, in the experiment with SR leukemia, in the experiment on OVCAR-8 ovarian and in the experiment on CAKI-1 renal was greater than 100 µM in each case. Besides, the GI50 with A498 renal, in the experiment with COLO 205 colon, with RPMI-8226 leukemia and with DU-145 prostate was greater than 100 µM throughout. The TGI in the experiment on HOP-62 NSCLC, in the experiment on CCRF-CEM leukemia, in the experiment with RXF 393 renal, with SR leukemia, in the experiment with OVCAR-8 ovarian and in the experiment with CAKI-1 renal was greater than 100 µM in each case. The TGI with A498 renal, in the experiment with COLO 205 colon, in the experiment with RPMI-8226 leukemia and in the experiment on DU-145 prostate was greater than 100 µM each time.
With `Cc1ccc(Cl)cc1Nc1nc(C(F)(F)F)ccc1C(=O)N/N=C/c1c(Cl)cccc1Cl`, the GI50 with HOP-62 NSCLC was 0.745 µM; with CCRF-CEM leukemia, 0.289 µM; in the experiment with RXF 393 renal it was 1.23 µM; with SR leukemia, 0.251 µM; with OVCAR-8 ovarian, 0.85 µM; in the experiment on CAKI-1 renal, 0.495 µM. Moreover, the GI50 is 0.929 µM in the experiment with A498 renal, 0.395 µM in the experiment on COLO 205 colon, 0.32 µM in the experiment on RPMI-8226 leukemia and 1.21 µM in the experiment with DU-145 prostate. For the same molecule, the TGI was 2.29 µM in the experiment with HOP-62 NSCLC; 1.56 µM in the experiment on CCRF-CEM leukemia; 3.48 µM in the experiment with RXF 393 renal; 3.88 µM in the experiment on SR leukemia; greater than 50.3 µM in the experiment on OVCAR-8 ovarian; 3.49 µM in the experiment with CAKI-1 renal. Besides, the TGI with A498 renal was 5.61 µM; in the experiment on COLO 205 colon, 1.72 µM; in the experiment on RPMI-8226 leukemia, 1.79 µM; in the experiment on DU-145 prostate, greater than 100 µM.
As for `COc1ccc(-c2cn(-c3ccc(Cl)cc3)c(=S)[nH]2)cc1OC`, the GI50 with HOP-62 NSCLC is 21.5 µM; in the experiment on CCRF-CEM leukemia, greater than 100 µM; with RXF 393 renal, 2.98 µM; with SR leukemia it was 2.91 µM; with OVCAR-8 ovarian, 46.7 µM; in the experiment on CAKI-1 renal, 3.24 µM. For the same molecule, the GI50 in the experiment on A498 renal is 3.63 µM; with COLO 205 colon, 5.61 µM; in the experiment with RPMI-8226 leukemia it was 4.43 µM; in the experiment with DU-145 prostate it was 14 µM. Further, the TGI with HOP-62 NSCLC, in the experiment on CCRF-CEM leukemia, in the experiment with RXF 393 renal, in the experiment on SR leukemia, with OVCAR-8 ovarian and in the experiment with CAKI-1 renal was greater than 100 µM throughout. Moreover, the TGI in the experiment with A498 renal was 53.9 µM; in the experiment on COLO 205 colon, greater than 100 µM; with RPMI-8226 leukemia it was 92.3 µM; with DU-145 prostate it was greater than 100 µM.
Regarding `O=C(CCCCCCC(=O)N/N=C/c1ccc(N(c2ccccc2)c2ccccc2)cc1)NO`, the GI50 was 2.21 µM with HOP-62 NSCLC; 2.64 µM with CCRF-CEM leukemia; 2.27 µM in the experiment on RXF 393 renal; 2.38 µM with SR leukemia; 3.02 µM in the experiment with OVCAR-8 ovarian; 0.201 µM in the experiment on CAKI-1 renal. The GI50 with A498 renal was 0.357 µM; in the experiment with COLO 205 colon it was 2.02 µM; with RPMI-8226 leukemia, 1.88 µM; in the experiment with DU-145 prostate, 2.43 µM. The TGI in the experiment on HOP-62 NSCLC was 10.2 µM; in the experiment with CCRF-CEM leukemia, 16.4 µM; in the experiment on RXF 393 renal, 7.06 µM; in the experiment with SR leukemia, 14.1 µM; with OVCAR-8 ovarian, 20.8 µM; in the experiment on CAKI-1 renal it was 1.24 µM. The TGI came to 1.62 µM in the experiment with A498 renal, 4.63 µM in the experiment with COLO 205 colon, 14 µM with RPMI-8226 leukemia and 8.13 µM in the experiment on DU-145 prostate.
